What is called EC50 is the concentration that produces a half-maximal response.

SMILES strings stand for the structures.

For assay [1], the target named is T1, human GPR40 (Homo sapiens, UniProt O14842).
T1 construct: expressed in transfected cells; host or cells: CHO cells stably transfected with GPR40 and Aequorin
The assay is described as follows: Cell-based aequorin assay. The note with it: CHO cells stably transfected with GPR40 and aequorin; 0.01% HSA. The method, then: Cell-based aequorin assays were employed to characterize the modulatory activity of compounds on the GPR40 signaling pathway. In an exemplary assay, CHO cells were stably transfected with both GPR40 and Aequorin (Euroscreen). Cells were detached from the tissue culture dish with 2 mL of trypsin (0.25% (w/v)). Trypsinization was halted with 28 mL of Hanks Buffered Salt Solution containing 20 mM Hepes (H/HBSS) and 0.01% fatty acid-free human serum albumin (HSA). Coelantrazine is added to 1 ug/mL, and the cells were incubated for 2 hours at room temperature. Compounds were dissolved in DMSO for preparation of 10 mM stock solutions. Compounds were diluted in H/HBSS containing 0.01% HSA. Serial dilutions of the test compounds were prepared to determine dose response.
Aequorin luminescence measurements were made using an EG&G Berthold 96-well luminometer, and the response was measured over a 20 second interval after cells and compounds were mixed. The maximum relative light units was plotted to determine dose response. The EC50 (effective concentration to reach 50% maximal response) was determined from the dose response plot.

The target of assay [2] is T1, human GPR40. The experiment in a line: Inositol phosphate accumulation assay. The format is cell-based. The note with it: A9 cell line stably transfected with GPR40; 1 hour at 37° C.; read-out: IP3 EC50. The procedure: An A9 cell line stably transfected with GPR40 (A9_GPR40) was used in IP accumulation assays. A9_GPR40 cells were plated in 96-well plates containing 20,000 cells/well in DMEM containing 10% FBS. After the cells attached to the well surface, the media was replaced with inositol free DMEM containing 10% dialyzed FBS and 1 μCi, mL ^3H-inositol and incubated for 16 hours. Compounds were diluted in HBSS/10 mM LiCl containing a desired amount of HSA and added directly to cells. Following 1 hour incubation at 37° C., the media was replaced with 100 μL of 20 mM formic acid to quench the reaction. 50 μL of the extract was then added to 100 μL of SPA beads, incubated overnight, and measured on a TopCount the following day.

T1 sequence (O14842 whole entry): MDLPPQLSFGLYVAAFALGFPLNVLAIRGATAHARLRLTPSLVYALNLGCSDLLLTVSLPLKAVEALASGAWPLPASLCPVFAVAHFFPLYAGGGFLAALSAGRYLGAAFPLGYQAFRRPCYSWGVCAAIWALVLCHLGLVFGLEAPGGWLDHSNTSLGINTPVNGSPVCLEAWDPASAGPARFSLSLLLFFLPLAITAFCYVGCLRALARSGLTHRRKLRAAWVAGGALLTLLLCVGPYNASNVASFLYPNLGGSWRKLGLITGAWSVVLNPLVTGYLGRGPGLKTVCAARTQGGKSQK

With `COc1cc(-c2ccc(COc3cc(F)c4c(c3F)[C@]3(CC4)C[C@H]3C(=O)O)cc2[C@H](OC)C(C)(C)C)c(F)cn1` (single isomer, unassigned) [Example 127], the EC50 was 100 to 1000 nM at human GPR40 [1] and less than 10 nM at human GPR40 [2].

`CCCOc1ccc(COc2ccc3c(c2)[C@]2(CCC3)C[C@H]2C(=O)O)cc1[C@@H]1CCCC1(C)C` (single isomer, unassigned) [Example 129]: the EC50 at human GPR40 [1] lay within 1000 to 10000 nM; at human GPR40 [2], 100 to 1000 nM.

As to `CC(C)COc1ccc(COc2ccc3c(c2)[C@]2(CCC3)C[C@H]2C(=O)O)cc1[C@@H]1CCCC1(C)C` (single isomer, unassigned) [Example 130], the values for the EC50 at human GPR40 [1] and at human GPR40 [2] were 1000 to 10000 nM and 100 to 1000 nM, respectively.

For the molecule `COCCOc1ccc(COc2ccc3c(c2)[C@]2(CCC3)C[C@H]2C(=O)O)cc1[C@@H]1CCCC1(C)C` (single isomer, unassigned) [Example 131], the EC50 at human GPR40 [1] lay within 1000 to 10000 nM; on human GPR40 [2], 100 to 1000 nM.

For `COc1ccc(F)c(-c2ccc(COc3ccc4c(c3)C3(CC4)CCC3C(=O)O)cc2[C@@H]2CCCC2(C)C)c1` (single isomer, unassigned) [Example 148], the results for the EC50 at human GPR40 [1] and on human GPR40 [2] were 100 to 1000 nM and 10 to 100 nM, respectively.

For the molecule `COc1ccc(F)c(-c2ccc(COc3ccc4c(c3)C3(CC4)CCC3C(=O)O)cc2C(OC)C(C)(C)C)c1` (single isomer, unassigned) [Example 149], the EC50 at human GPR40 [1] was 100 to 1000 nM; at human GPR40 [2] it was less than 10 nM.

As for `COc1cc(-c2ccc(COc3ccc4c(c3)[C@]3(CC4)CC[C@@H]3C(=O)O)cc2[C@@H]2CCCC2(C)C)c(F)cn1` (single isomer, unassigned) [Example 150], the figures for the EC50 at human GPR40 [1] and on human GPR40 [2] were 100 to 1000 nM and less than 10 nM, respectively.

Take `COc1ccc(F)c(-c2ccc(COc3ccc4c(c3)[C@]3(CC4)CC[C@@H]3C(=O)O)cc2C2=CCCC2(C)C)c1` (single isomer, unassigned) [Example 151]: the values for the EC50 on human GPR40 [1] and on human GPR40 [2] were 100 to 1000 nM and 10 to 100 nM, respectively.

As to `COc1ccc(F)c(-c2ccc(COc3ccc4c(c3)[C@]3(CCC4)CC[C@@H]3C(=O)O)cc2[C@@H]2CCCC2(C)C)c1` (single isomer, unassigned) [Example 154], the EC50 lay within 100 to 1000 nM on human GPR40 [1] and 10 to 100 nM on human GPR40 [2].

On to `COc1ccc(F)c(-c2ccc(COc3ccc4c(c3)C3(CCC4)CCC3C(=O)O)cc2C(OC)C(C)(C)C)c1` (single isomer, unassigned) [Example 155], for which the concentration for a half-maximal effect (EC50) is 100 to 1000 nM on human GPR40 [1] and less than 10 nM at human GPR40 [2].

As for `COc1cc(-c2ccc(COc3ccc4c(c3)C3(CCC4)CCC3C(=O)O)cc2[C@@H]2CCCC2(C)C)c(F)cn1` (single isomer, unassigned) [Example 156], the figures for the EC50 at human GPR40 [1] and on human GPR40 [2] were 100 to 1000 nM and 10 to 100 nM, respectively.

For `COc1ccc(F)c(-c2ccc(COc3ccc4c(c3)[C@]3(CCC4)CC[C@@H]3C(=O)O)cc2C2=CCCC2(C)C)c1` (single isomer, unassigned) [Example 158], the concentration giving a half-maximal response (EC50) at human GPR40 [1] lay within 100 to 1000 nM; on human GPR40 [2] it was 10 to 100 nM.

Take `COc1cc(-c2ccc(COc3ccc4c(c3F)[C@]3(CC4)C[C@H]3C(=O)O)cc2[C@@H]2CCCC2(C)C)c(Cl)cn1` (stereo in doubt) [Example 125]: the results for the EC50 at human GPR40 [1] and on human GPR40 [2] were 100 to 1000 nM and 10 to 100 nM, respectively.

For the molecule `COc1ccc(F)c(-c2ccc(COc3ccc4c(c3)[C@]3(CC4)C[C@H]3C(=O)O)cc2C2=CCCC2(C)C)c1` [Example 1], the EC50 on human GPR40 [1] was 100 to 1000 nM; at human GPR40 [2] it was less than 10 nM.

On to `COc1ccc(F)c(-c2ccc(COc3ccc4c(c3)[C@]3(CC4)C[C@H]3C(=O)O)cc2CC(C)(C)C)c1` [Example 13], for which the figures for the EC50 on human GPR40 [1] and on human GPR40 [2] were 10 to 100 nM and less than 10 nM, respectively.

In the case of `COc1cc(-c2ccc(COc3ccc4c(c3)[C@]3(CC4)C[C@H]3C(=O)O)cc2[C@@H]2CCCC2(C)C)c(F)cn1` [Example 19, (1R,2R)-6′-(3-((R)-2,2-Dimethylcyclopentyl)-4-(5-fluoro-2-methoxypyridin-4-yl)benzyloxy)-2′,3′-dihydrospiro[cyclopropane-1,1′-indene]-2-carboxylic acid], the EC50 at human GPR40 [1] is 10 to 100 nM; on human GPR40 [2], less than 10 nM.

Regarding `COc1ccc(F)c(-c2ccc(COc3ccc4c(c3)[C@]3(CC4)C[C@H]3C(=O)O)cc2C2=CCCC2)c1` [Example 20], the EC50 at human GPR40 [1] is 100 to 1000 nM; on human GPR40 [2], 10 to 100 nM.

Regarding `COc1ccc(F)c(-c2ccc(COc3ccc4c(c3)[C@]3(CC4)C[C@H]3C(=O)O)cc2C2(OC)CCCC2)c1` [Example 22], the EC50 at human GPR40 [1] lay within 100 to 1000 nM; on human GPR40 [2], 10 to 100 nM.

Turning to `CCCCOc1cc(COc2ccc3c(c2)[C@]2(CC3)C[C@H]2C(=O)O)ccc1-c1cc(OC)ccc1F` [Example 24], the EC50 at human GPR40 [1] lay within 100 to 1000 nM; at human GPR40 [2], 10 to 100 nM.

For the molecule `CCCCOc1cc(COc2ccc3c(c2)[C@]2(CC3)C[C@H]2C(=O)O)ccc1-c1cccc(OC)c1` [Example 25], the EC50 on human GPR40 [1] and at human GPR40 [2] was 100 to 1000 nM each time.

As to `COc1cc(-c2ccc(COc3ccc4c(c3)[C@]3(CCC4)C[C@H]3C(=O)O)cc2[C@@H]2CCCC2(C)C)c(F)cn1` [Example 48], the EC50 was 10 to 100 nM at human GPR40 [1] and less than 10 nM on human GPR40 [2].

`COc1ccc(F)c(-c2ccc(COc3ccc4c(c3)[C@]3(CCC4)C[C@H]3C(=O)O)cc2C2=CCCC2(C)C)c1` [Example 49]: the EC50 at human GPR40 [1] lay within 100 to 1000 nM; at human GPR40 [2] it was 10 to 100 nM.

Consider `COc1cc(-c2ccc(COc3ccc4c(c3F)[C@]3(CCC4)C[C@H]3C(=O)O)cc2[C@@H]2CCCC2(C)C)c(F)cn1` [Example 55], for which the EC50 at human GPR40 [1] was 100 to 1000 nM; on human GPR40 [2], less than 10 nM.

Source of the values: patent US8748462B2, “Spirocyclic GPR40 modulators” (Amgen Inc., priority 2008, dated 2014).
